According to the supplement of paper PMC10307832:

Key:
Test in all cases: relative viability (nuclei count vs DMSO), 5 days (fraction); higher = more cells survive
201T = test system: 201T
Summary of the method: (§1)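 One day after seeding in 1536-well plates, lung cancer cell lines were dosed by pin tool. Dosing was either single-drug or a fixed anchor-drug dose plus five library-drug doses (not always all listed) in √10 steps. After 5 days, nuclei were stained in one fix-and-stain step and counted on 4× images, and relative viability is the nuclei count of treated wells over that of vehicle wells, given as the median of duplicate plates.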

BEN = test system: BEN
Summary of the method: as §1

EMC-BAC-2 = test system: EMC-BAC-2
Summary of the method: as §1

HARA = test system: HARA
Summary of the method: as §1

HCC-44 = test system: HCC-44
Summary of the method: as §1

LCLC-103H = test system: LCLC-103H
Summary of the method: as §1

LOU-NH91 = test system: LOU-NH91
Summary of the method: as §1

NCI-H1395 = test system: NCI-H1395
Summary of the method: as §1

NCI-H1993 = test system: NCI-H1993
Summary of the method: as §1

NCI-H2023 = test system: NCI-H2023
Summary of the method: as §1

NCI-H2087 = test system: NCI-H2087
Summary of the method: as §1

NCI-H2126 = test system: NCI-H2126
Summary of the method: as §1

NCI-H2347 = test system: NCI-H2347
Summary of the method: as §1

NCI-H23 = test system: NCI-H23
Summary of the method: as §1

NCI-H3122 = test system: NCI-H3122
Summary of the method: as §1

NCI-H441 = test system: NCI-H441
Summary of the method: as §1

NCI-H596 = test system: NCI-H596
Summary of the method: as §1

NCI-H647 = test system: NCI-H647
Summary of the method: as §1

NCI-H650 = test system: NCI-H650
Summary of the method: as §1

NCI-H727 = test system: NCI-H727
Summary of the method: as §1

NCI-H838 = test system: NCI-H838
Summary of the method: as §1

## Nc1ccn([C@@H]2O[C@H](CO)[C@@H](O)[C@@H]2O)c(=O)n1 [Cytarabine] + Cc1nc(NC(=O)N2CCC[C@H]2C(N)=O)sc1-c1ccnc(C(C)(C)C(F)(F)F)c1 [Alpelisib] (partner 2 µM)
201T; first compound 0.005 µM
  relative viability: 0.999
201T; first compound 0.01581 µM
  relative viability: 0.983
201T; first compound 0.05 µM
  relative viability: 1.02
201T; first compound 0.1581 µM
  relative viability: 0.887
201T; first compound 0.5 µM
  relative viability: 0.872
BEN; first compound 0.005 µM
  relative viability: 0.832
BEN; first compound 0.01581 µM
  relative viability: 0.821
BEN; first compound 0.05 µM
  relative viability: 0.634
BEN; first compound 0.1581 µM
  relative viability: 0.418
BEN; first compound 0.5 µM
  relative viability: 0.353
EMC-BAC-2; first compound 0.005 µM
  relative viability: 0.64
EMC-BAC-2; first compound 0.01581 µM
  relative viability: 0.658
EMC-BAC-2; first compound 0.05 µM
  relative viability: 0.598
EMC-BAC-2; first compound 0.1581 µM
  relative viability: 0.193
EMC-BAC-2; first compound 0.5 µM
  relative viability: 0.182
HARA; first compound 0.005 µM
  relative viability: 0.598
HARA; first compound 0.01581 µM
  relative viability: 0.376
HARA; first compound 0.05 µM
  relative viability: 0.416
HARA; first compound 0.1581 µM
  relative viability: 0.167
HARA; first compound 0.5 µM
  relative viability: 0.143
HCC-44; first compound 0.005 µM
  relative viability: 0.806
HCC-44; first compound 0.01581 µM
  relative viability: 0.726
HCC-44; first compound 0.05 µM
  relative viability: 0.586
HCC-44; first compound 0.1581 µM
  relative viability: 0.429
HCC-44; first compound 0.5 µM
  relative viability: 0.517
LCLC-103H; first compound 0.005 µM
  relative viability: 0.988
LCLC-103H; first compound 0.01581 µM
  relative viability: 0.906
LCLC-103H; first compound 0.05 µM
  relative viability: 1.02
LCLC-103H; first compound 0.1581 µM
  relative viability: 0.967
LCLC-103H; first compound 0.5 µM
  relative viability: 0.809
LOU-NH91; first compound 0.005 µM
  relative viability: 0.708
LOU-NH91; first compound 0.01581 µM
  relative viability: 0.695
LOU-NH91; first compound 0.05 µM
  relative viability: 0.603
LOU-NH91; first compound 0.1581 µM
  relative viability: 0.425
LOU-NH91; first compound 0.5 µM
  relative viability: 0.462
NCI-H1395; first compound 0.005 µM
  relative viability: 1.04
NCI-H1395; first compound 0.01581 µM
  relative viability: 0.858
NCI-H1395; first compound 0.05 µM
  relative viability: 0.583
NCI-H1395; first compound 0.1581 µM
  relative viability: 0.423
NCI-H1395; first compound 0.5 µM
  relative viability: 0.441
NCI-H1993; first compound 0.005 µM
  relative viability: 0.691
NCI-H1993; first compound 0.01581 µM
  relative viability: 0.636
NCI-H1993; first compound 0.05 µM
  relative viability: 0.642
NCI-H1993; first compound 0.1581 µM
  relative viability: 0.501
NCI-H1993; first compound 0.5 µM
  relative viability: 0.517
NCI-H2023; first compound 0.005 µM
  relative viability: 0.489
NCI-H2023; first compound 0.01581 µM
  relative viability: 0.391
NCI-H2023; first compound 0.05 µM
  relative viability: 0.182
NCI-H2023; first compound 0.1581 µM
  relative viability: 0.117
NCI-H2023; first compound 0.5 µM
  relative viability: 0.0764
NCI-H2087; first compound 0.005 µM
  relative viability: 0.962
NCI-H2087; first compound 0.01581 µM
  relative viability: 1.1
NCI-H2087; first compound 0.05 µM
  relative viability: 0.899
NCI-H2087; first compound 0.1581 µM
  relative viability: 0.666
NCI-H2087; first compound 0.5 µM
  relative viability: 0.452
NCI-H2126; first compound 0.005 µM
  relative viability: 0.765
NCI-H2126; first compound 0.01581 µM
  relative viability: 0.597
NCI-H2126; first compound 0.05 µM
  relative viability: 0.694
NCI-H2126; first compound 0.1581 µM
  relative viability: 0.564
NCI-H2126; first compound 0.5 µM
  relative viability: 0.408
NCI-H2347; first compound 0.005 µM
  relative viability: 1.22
NCI-H2347; first compound 0.01581 µM
  relative viability: 0.964
NCI-H2347; first compound 0.05 µM
  relative viability: 0.868
NCI-H2347; first compound 0.1581 µM
  relative viability: 0.691
NCI-H2347; first compound 0.5 µM
  relative viability: 0.663
NCI-H23; first compound 0.005 µM
  relative viability: 0.575
NCI-H23; first compound 0.01581 µM
  relative viability: 0.547
NCI-H23; first compound 0.05 µM
  relative viability: 0.373
NCI-H23; first compound 0.1581 µM
  relative viability: 0.195
NCI-H23; first compound 0.5 µM
  relative viability: 0.127
NCI-H3122; first compound 0.005 µM
  relative viability: 0.673
NCI-H3122; first compound 0.01581 µM
  relative viability: 0.699
NCI-H3122; first compound 0.05 µM
  relative viability: 0.772
NCI-H3122; first compound 0.1581 µM
  relative viability: 0.464
NCI-H3122; first compound 0.5 µM
  relative viability: 0.424
NCI-H441; first compound 0.005 µM
  relative viability: 0.542
NCI-H441; first compound 0.01581 µM
  relative viability: 0.49
NCI-H441; first compound 0.05 µM
  relative viability: 0.391
NCI-H441; first compound 0.5 µM
  relative viability: 0.165
NCI-H596; first compound 0.005 µM
  relative viability: 0.5
NCI-H596; first compound 0.01581 µM
  relative viability: 0.567
NCI-H596; first compound 0.05 µM
  relative viability: 0.433
NCI-H596; first compound 0.1581 µM
  relative viability: 0.418
NCI-H596; first compound 0.5 µM
  relative viability: 0.315
NCI-H647; first compound 0.005 µM
  relative viability: 0.491
NCI-H647; first compound 0.01581 µM
  relative viability: 0.356
NCI-H647; first compound 0.05 µM
  relative viability: 0.142
NCI-H647; first compound 0.1581 µM
  relative viability: 0.086
NCI-H647; first compound 0.5 µM
  relative viability: 0.0694
NCI-H650; first compound 0.005 µM
  relative viability: 0.732
NCI-H650; first compound 0.01581 µM
  relative viability: 0.81
NCI-H650; first compound 0.05 µM
  relative viability: 0.468
NCI-H650; first compound 0.1581 µM
  relative viability: 0.218
NCI-H650; first compound 0.5 µM
  relative viability: 0.224
NCI-H727; first compound 0.005 µM
  relative viability: 0.461
NCI-H727; first compound 0.01581 µM
  relative viability: 0.505
NCI-H727; first compound 0.05 µM
  relative viability: 0.388
NCI-H727; first compound 0.1581 µM
  relative viability: 0.258
NCI-H727; first compound 0.5 µM
  relative viability: 0.159
NCI-H838; first compound 0.005 µM
  relative viability: 0.886
NCI-H838; first compound 0.01581 µM
  relative viability: 1.12
NCI-H838; first compound 0.05 µM
  relative viability: 0.909
NCI-H838; first compound 0.1581 µM
  relative viability: 0.452
NCI-H838; first compound 0.5 µM
  relative viability: 0.252
